Patent EP4512806A1, “MOLECULAR GLUE DEGRADERS AND USES THEREOF” (Mablink Bioscience, priority 2023, dated 2025)

Assays:
[1] = In vivo mice tolerability assessment; settings: female CD-1 mice, single intravenous 1mg/kg dose, Mean
Procedure: All animal procedures were performed in accordance with the European Union directive 86/609/EEC. Experiments were performed under individual permit and in accredited animal care facilities.
Mouse tolerability experiments were performed with selected compounds of the disclosure. Female CD-1 mice (n=5 mice per group) were treated with a single intravenous 1mg/kg dose of compound. Vehicle was PBS pH 6.0. Mice were carefully monitored for mortality, external clinical findings, weight loss, behavior and apparent signs of toxicity over the course of 21 days.

JIMT-1 cells = assay: Cell cycle arrest assessment (propidium iodide, flow cytometry); assay type: cell-based, human; settings: 24h, 2, 5, 10, and 50nM
Procedure: 1×10^6 JIMT-1 cells were plated in 3mL of DMEM/FBS 90:10 (v/v) in 6-well plates and incubated overnight. Cells were treated with the compound 2384 of the invention or with CR8 for 24h. Cells were then harvested and washed three times with PBS. Cells were suspended into 300µL of propidium iodide working solution (0.05mg/mL) and incubated for 45 minutes at 4°C in the dark. Analysis was performed using a BD Fortessa flow cytometer controlled by BD FACSDiva software (BD Biosciences) and data were analyzed using FlowJo software (BD Bioscience).

Compound: N[C@H]1CC[C@H](Nc2nc(NCc3ccc(-c4ccccn4)cc3)n3ncc(Br)c3n2)CC1 [Compound 2384]
- average weight change (% initial weight) ([1]; Study Day 1): 0.0 % initial weight
- average weight change (% initial weight) ([1]; Study Day 2): -2.5 % initial weight
- average weight change (% initial weight) ([1]; Study Day 3): -7.1 % initial weight
- average weight change (% initial weight) ([1]; Study Day 4): -14.6 % initial weight
- average weight change (% initial weight) ([1]; Study Day 5): -15.2 % initial weight
- average weight change (% initial weight) ([1]; Study Day 6): -14.9 % initial weight
- average weight change (% initial weight) ([1]; Study Day 7): -12.4 % initial weight
- average weight change (% initial weight) ([1]; Study Day 8): -9.2 % initial weight
- average weight change (% initial weight) ([1]; Study Day 9): -7.3 % initial weight
- average weight change (% initial weight) ([1]; Study Day 10): -1.9 % initial weight
- average weight change (% initial weight) ([1]; Study Day 11): -0.7 % initial weight
- average weight change (% initial weight) ([1]; Study Day 12): 4.1 % initial weight
- average weight change (% initial weight) ([1]; Study Day 13): 1.9 % initial weight
- average weight change (% initial weight) ([1]; Study Day 14): -1.8 % initial weight
- average weight change (% initial weight) ([1]; Study Day 15): -3.4 % initial weight
- average weight change (% initial weight) ([1]; Study Day 16): -4.1 % initial weight
- average weight change (% initial weight) ([1]; Study Day 17): -1.6 % initial weight
- average weight change (% initial weight) ([1]; Study Day 18): -0.5 % initial weight
- average weight change (% initial weight) ([1]; Study Day 19): 0.7 % initial weight
- average weight change (% initial weight) ([1]; Study Day 20): 2.6 % initial weight
- average weight change (% initial weight) ([1]; Study Day 21): 2.0 % initial weight
- cell cycle analysis (propidium iodide) (JIMT-1 cells): arrest in the G2/M phase
